The source of these data is ChEMBL document CHEMBL1681665, “3-amido-4-anilinocinnolines as a novel class of CSF-1R inhibitor” (Bioorg Med Chem Lett, 2011).

Converted amounts (≈) assume the structure as drawn. “And” between values parts separate entries of the source, which are not always exact repeats. Equal entries are not always repeated. Bounds are passed on as bounds.

Series [1] can be described thus: Aqueous solubility of the compound. The settings on record: aqueous medium.
The nature of series [2]: Fraction unbound in plasma.
Another series deals with NIH3T3. As to the kind of experiment: Antiproliferative activity against mouse 3T3 cells expressing human CSF1R after 72 hrs by Celltiter assay. It counts as functional.
Series [3] concerns the target Mast/stem cell growth factor receptor Kit (Homo sapiens) (UniProt P10721). Briefly: Inhibition of c-Kit at 0.1 uM.
For series [4], the target named is Maternal embryonic leucine zipper kinase (Homo sapiens) (UniProt Q14680). Briefly: Inhibition of MELK at 1 uM.
Sequence of Maternal embryonic leucine zipper kinase (Homo sapiens) (Q14680 whole entry, looked up): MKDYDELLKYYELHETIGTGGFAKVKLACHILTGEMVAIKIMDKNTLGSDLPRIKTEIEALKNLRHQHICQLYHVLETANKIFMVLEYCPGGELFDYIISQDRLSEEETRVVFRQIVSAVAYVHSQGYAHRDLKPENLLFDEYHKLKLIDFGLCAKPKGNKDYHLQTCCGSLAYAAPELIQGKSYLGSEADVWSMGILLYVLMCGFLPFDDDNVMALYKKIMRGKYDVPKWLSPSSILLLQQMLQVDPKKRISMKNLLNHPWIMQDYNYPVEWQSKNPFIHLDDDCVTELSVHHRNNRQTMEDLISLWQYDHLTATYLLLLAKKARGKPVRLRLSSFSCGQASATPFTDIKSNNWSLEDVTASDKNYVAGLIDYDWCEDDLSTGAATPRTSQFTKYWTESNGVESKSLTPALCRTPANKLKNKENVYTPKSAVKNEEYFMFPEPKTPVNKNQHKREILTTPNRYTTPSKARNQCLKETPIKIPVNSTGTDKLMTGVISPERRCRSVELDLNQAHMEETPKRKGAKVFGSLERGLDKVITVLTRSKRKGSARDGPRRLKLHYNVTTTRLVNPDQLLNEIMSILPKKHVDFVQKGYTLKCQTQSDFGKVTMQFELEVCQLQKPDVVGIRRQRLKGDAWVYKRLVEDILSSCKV
Series [5] has as its target Macrophage colony-stimulating factor 1 receptor (Homo sapiens) (UniProt P07333). Briefly: Inhibition of CSF1R at 0.1 uM.
Series [6] addresses Maternal embryonic leucine zipper kinase (Homo sapiens) (UniProt Q14680). As to the kind of experiment: Inhibition of MELK at 0.1 uM.
Series [7] deals with Mast/stem cell growth factor receptor Kit (Homo sapiens) (UniProt P10721). As to the kind of experiment: Inhibition of c-Kit at 1 uM.
Sequence of Mast/stem cell growth factor receptor Kit (Homo sapiens) (P10721 whole entry): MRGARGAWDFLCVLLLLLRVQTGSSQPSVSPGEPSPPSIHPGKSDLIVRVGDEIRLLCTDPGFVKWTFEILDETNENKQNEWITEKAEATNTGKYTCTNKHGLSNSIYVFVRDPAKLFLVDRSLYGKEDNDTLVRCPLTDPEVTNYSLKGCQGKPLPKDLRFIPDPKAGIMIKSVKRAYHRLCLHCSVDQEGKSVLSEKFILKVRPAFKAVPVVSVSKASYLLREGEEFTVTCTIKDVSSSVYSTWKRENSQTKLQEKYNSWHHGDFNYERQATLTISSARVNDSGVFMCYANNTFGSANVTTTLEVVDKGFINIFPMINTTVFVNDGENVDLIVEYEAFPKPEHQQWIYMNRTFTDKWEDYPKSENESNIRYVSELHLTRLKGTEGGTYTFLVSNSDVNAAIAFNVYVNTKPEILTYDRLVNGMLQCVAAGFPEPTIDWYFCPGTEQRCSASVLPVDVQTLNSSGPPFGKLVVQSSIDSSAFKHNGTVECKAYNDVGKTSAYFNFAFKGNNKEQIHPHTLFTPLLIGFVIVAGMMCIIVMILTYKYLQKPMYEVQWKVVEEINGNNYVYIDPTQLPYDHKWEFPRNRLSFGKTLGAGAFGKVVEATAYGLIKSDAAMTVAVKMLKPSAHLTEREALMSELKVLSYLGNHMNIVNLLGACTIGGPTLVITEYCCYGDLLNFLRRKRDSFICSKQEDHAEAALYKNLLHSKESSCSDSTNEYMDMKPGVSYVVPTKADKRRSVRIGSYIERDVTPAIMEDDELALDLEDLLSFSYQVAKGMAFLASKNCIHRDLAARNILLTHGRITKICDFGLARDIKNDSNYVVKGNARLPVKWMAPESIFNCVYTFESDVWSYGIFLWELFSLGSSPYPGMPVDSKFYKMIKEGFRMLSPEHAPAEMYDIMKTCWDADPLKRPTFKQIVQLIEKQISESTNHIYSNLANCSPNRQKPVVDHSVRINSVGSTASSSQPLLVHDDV
Series [8] deals with T1, NUAK family SNF1-like kinase 1 (Homo sapiens) (UniProt O60285).
T1 sequence (whole entry): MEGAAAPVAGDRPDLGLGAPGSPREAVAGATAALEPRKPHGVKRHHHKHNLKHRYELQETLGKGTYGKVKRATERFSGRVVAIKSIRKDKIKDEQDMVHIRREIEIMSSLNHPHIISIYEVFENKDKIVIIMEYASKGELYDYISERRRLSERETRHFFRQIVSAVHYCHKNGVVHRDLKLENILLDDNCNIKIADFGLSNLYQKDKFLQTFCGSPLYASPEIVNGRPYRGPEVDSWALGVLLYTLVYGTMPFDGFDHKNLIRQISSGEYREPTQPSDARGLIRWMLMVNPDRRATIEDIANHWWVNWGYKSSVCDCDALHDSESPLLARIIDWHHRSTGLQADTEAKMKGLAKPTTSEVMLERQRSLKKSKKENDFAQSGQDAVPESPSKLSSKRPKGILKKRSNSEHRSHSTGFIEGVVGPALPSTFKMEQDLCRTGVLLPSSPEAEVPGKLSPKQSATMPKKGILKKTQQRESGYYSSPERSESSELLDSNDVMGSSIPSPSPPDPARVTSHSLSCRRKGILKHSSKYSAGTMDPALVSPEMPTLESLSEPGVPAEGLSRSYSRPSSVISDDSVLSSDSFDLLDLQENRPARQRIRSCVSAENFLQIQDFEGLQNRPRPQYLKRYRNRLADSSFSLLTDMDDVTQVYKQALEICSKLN
Briefly: Inhibition of ARK5 at 1 uM.

Series [9] deals with Macrophage colony-stimulating factor 1 receptor (Homo sapiens) (UniProt P07333). As to the kind of experiment: Inhibition of CSF1R at 1 uM.
Sequence of Macrophage colony-stimulating factor 1 receptor (Homo sapiens) (P07333 whole entry): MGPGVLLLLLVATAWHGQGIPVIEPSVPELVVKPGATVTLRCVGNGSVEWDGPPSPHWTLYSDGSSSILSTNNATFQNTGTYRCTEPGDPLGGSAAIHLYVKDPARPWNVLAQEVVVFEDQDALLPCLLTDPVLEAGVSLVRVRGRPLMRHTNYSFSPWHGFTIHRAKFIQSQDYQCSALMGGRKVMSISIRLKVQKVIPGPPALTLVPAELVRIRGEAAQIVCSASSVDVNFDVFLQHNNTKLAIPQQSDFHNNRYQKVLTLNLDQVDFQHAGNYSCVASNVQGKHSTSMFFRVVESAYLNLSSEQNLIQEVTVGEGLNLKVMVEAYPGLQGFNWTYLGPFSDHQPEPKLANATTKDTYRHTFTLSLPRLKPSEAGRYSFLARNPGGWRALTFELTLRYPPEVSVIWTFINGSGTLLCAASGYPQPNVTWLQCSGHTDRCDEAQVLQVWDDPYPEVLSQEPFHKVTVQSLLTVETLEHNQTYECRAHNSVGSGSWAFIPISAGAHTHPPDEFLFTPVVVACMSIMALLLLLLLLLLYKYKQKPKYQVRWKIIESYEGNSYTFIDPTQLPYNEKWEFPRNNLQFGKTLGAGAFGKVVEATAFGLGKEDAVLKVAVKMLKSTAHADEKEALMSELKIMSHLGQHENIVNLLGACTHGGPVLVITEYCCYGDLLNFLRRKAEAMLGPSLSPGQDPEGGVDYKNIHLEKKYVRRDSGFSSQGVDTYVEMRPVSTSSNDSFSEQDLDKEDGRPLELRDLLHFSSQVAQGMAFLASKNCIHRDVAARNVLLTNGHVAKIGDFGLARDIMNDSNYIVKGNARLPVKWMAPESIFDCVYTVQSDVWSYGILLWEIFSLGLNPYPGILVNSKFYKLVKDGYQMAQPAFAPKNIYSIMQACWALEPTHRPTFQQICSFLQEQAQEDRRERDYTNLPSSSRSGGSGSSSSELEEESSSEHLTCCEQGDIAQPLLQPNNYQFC
The target in series [10] is T1, NUAK family SNF1-like kinase 1 (Homo sapiens). Briefly: Inhibition of ARK5 at 0.1 uM.
In series [11] the target is Ribosomal protein S6 kinase alpha-1 (Homo sapiens) (UniProt Q15418). Briefly: Inhibition of Rsk1 at 0.1 uM.
Sequence of Ribosomal protein S6 kinase alpha-1 (Homo sapiens) (Q15418 whole entry): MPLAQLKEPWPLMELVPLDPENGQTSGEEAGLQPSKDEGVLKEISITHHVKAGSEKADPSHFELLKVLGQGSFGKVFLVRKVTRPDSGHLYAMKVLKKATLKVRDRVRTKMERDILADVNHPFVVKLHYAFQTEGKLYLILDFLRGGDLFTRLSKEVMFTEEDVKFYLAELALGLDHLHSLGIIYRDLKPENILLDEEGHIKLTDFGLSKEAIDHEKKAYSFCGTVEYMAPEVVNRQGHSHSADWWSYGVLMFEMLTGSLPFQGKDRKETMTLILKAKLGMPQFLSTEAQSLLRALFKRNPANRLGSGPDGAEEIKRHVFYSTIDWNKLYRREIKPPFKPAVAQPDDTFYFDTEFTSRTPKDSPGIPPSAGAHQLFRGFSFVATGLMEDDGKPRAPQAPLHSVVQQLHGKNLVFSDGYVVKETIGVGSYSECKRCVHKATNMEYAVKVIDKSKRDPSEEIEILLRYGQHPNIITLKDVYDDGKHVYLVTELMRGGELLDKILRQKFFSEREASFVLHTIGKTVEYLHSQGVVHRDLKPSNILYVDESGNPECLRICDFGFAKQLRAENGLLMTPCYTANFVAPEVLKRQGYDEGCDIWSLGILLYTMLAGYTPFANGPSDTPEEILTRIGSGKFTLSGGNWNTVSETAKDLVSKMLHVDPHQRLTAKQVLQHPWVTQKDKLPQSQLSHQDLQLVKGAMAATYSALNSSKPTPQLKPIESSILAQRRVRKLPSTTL
For series [12] the target is unchanged. Briefly: Inhibition of Rsk1 at 1 uM.
Series [13] is described as follows: Bioavailability in dog at 3 mg/kg, iv and 5 mg/kg, po. It counts as ADME, organism-based, Canis lupus familiaris. As to conditions: in vivo.
Series [14] is described as follows: Half life in mouse at 3 mg/kg, iv and 10 mg/kg, po. It counts as ADME, organism-based. The settings on record: in vivo.
The nature of series [15]: Bioavailability in rat at 3 mg/kg, iv and 10 mg/kg, po. As to conditions: in vivo. It counts as ADME, organism-based.
The nature of series [16]: Half life in dog at 3 mg/kg, iv and 5 mg/kg, po. It counts as ADME, organism-based, Canis lupus familiaris. The settings on record: in vivo.
The nature of series [17]: Clearance in dog at 3 mg/kg, iv and 5 mg/kg, po. It counts as ADME, organism-based, Canis lupus familiaris. The settings on record: in vivo.
A short description of series [18]: Clearance in rat at 3 mg/kg, iv and 10 mg/kg, po. As to conditions: in vivo. It counts as ADME, organism-based.
Series [19] is described as follows: Volume of distribution at steady state in dog at 3 mg/kg, iv and 5 mg/kg, po. As to conditions: in vivo, read-out: Vdss. It counts as ADME, organism-based, Canis lupus familiaris.
The nature of series [20]: Volume of distribution at steady state in mouse at 3 mg/kg, iv and 10 mg/kg, po. Type of series: ADME, organism-based. The settings on record: in vivo, read-out: Vdss.
Series [21] in a line: Volume of distribution at steady state in rat at 3 mg/kg, iv and 10 mg/kg, po. Type of series: ADME, organism-based. The settings on record: in vivo, read-out: Vdss.
Series [22] can be described thus: Half life in rat at 3 mg/kg, iv and 10 mg/kg, po. It counts as ADME, organism-based. As to conditions: in vivo.
Series [23] is described as follows: Bioavailability in mouse at 3 mg/kg, iv and 10 mg/kg, po. The settings on record: in vivo. Type of series: ADME, organism-based.
A short description of series [24]: Clearance in mouse at 3 mg/kg, iv and 10 mg/kg, po. The settings on record: in vivo. Type of series: ADME, organism-based.

The term solubility denotes how much of the substance goes into solution per volume. On to `CCOc1cc2nnc(C(N)=O)c(Nc3cccc(Cl)c3F)c2cc1N1CCN(C)CC1`, for which the solubility in series [1] turned out to be 18 µM (≈ 8.26 µg/mL).
As usually defined, the fraction unbound is free concentration divided by total concentration. Low readings indicate extensive binding, high ones weak binding. Turning to `CCOc1cc2nnc(C(N)=O)c(Nc3cccc(Cl)c3Cl)c2cc1N1CCN(C)CC1`, the solubility in [1] turned out to be 10 µM (≈ 4.75 µg/mL). The molecule further showed a fraction unbound in series [2] of less than 0.017.
In the case of `CCOc1cc2nnc(C(N)=O)c(Nc3cc(C)ccc3F)c2cc1N1CCN(C)CC1`, the solubility in [1] turned out to be 120 µM (≈ 52.6 µg/mL). Further, the Activity with NIH3T3 was 0.04 µM and 0.09 µM. In [2], this molecule had a fraction unbound of 0.11.
One may read the inhibition as the share of the control response that was lost under treatment. Read a low inhibition as a response near the control. For the molecule `CCOc1cc2nnc(C(N)=O)c(Nc3ccc(F)cc3F)c2cc1N1CCN(C)CC1`, the inhibition in [3] is 35%; in series [4], 41%; in series [5] it was 100%; in series [6] it was 15%; in series [7] it was 90%; in series [8], 78%. For the same molecule, the inhibition is 95% in series [9], 23% in series [10], 7% in series [11] and 44% in series [12]. The molecule also yielded a fraction unbound in series [2] of 0.039.
In series [1], `COc1cc2nnc(C(N)=O)c(Nc3cc(C)ccc3F)c2cc1OC` gave a solubility of less than 1 µM. In addition, in the series with NIH3T3, the Activity was 0.2 µM and 0.21 µM.
As to `COc1cc2nnc(C(N)=O)c(Nc3ccc(C)cc3F)c2cc1OC`, the solubility in series [1] is less than 1 µM. Also, the Activity in the series with NIH3T3 is 0.11 µM and 0.25 µM.
`COc1cc2nnc(C(N)=O)c(Nc3cccc(Cl)c3F)c2cc1OC` had a solubility in [1] of less than 1 µM. Also, in the series on NIH3T3, the Activity is 0.08 µM and 0.12 µM.
Regarding `COc1cc2nnc(C(N)=O)c(Nc3cc(C)ccc3F)c2cc1N1CCN(C)CC1`, the solubility in series [1] is 22 µM (≈ 9.34 µg/mL). Further, the Activity in the series on NIH3T3 came out at 0.057 µM.
In general, bioavailability refers to dose-corrected exposure relative to a reference, in per cent. For orientation: half-life means how long it takes for the measured level to halve. A low value points to fast loss. As to `CCOc1cc2nnc(C(N)=O)c(Nc3ccc(C)cc3F)c2cc1N1CCN(C)CC1`, the bioavailability in series [13] stood at 78%; in [15], 90%; in series [23], 82%. In addition, the half-life was 0.9 h in series [14], 12.6 h in [16] and 9.7 h in [22]. Moreover, the clearance in series [17] was found to be 0.12 L/h/kg; in [18], 0.6 L/h/kg; in [24], 0.72 L/h/kg. For the same molecule, in series [1], the solubility was determined as 27 µM (≈ 11.8 µg/mL). The Vd was 1.8 L/kg in series [19], 0.6 L/kg in series [20] and 2.8 L/kg in series [21]. Further, the fraction unbound in series [2] amounted to 0.016.
Turning to `COc1cc2nnc(C(N)=O)c(Nc3ccc(F)cc3F)c2cc1N1CCN(C)CC1`, the concentration in solution in [1] (solubility) came to 290 µM (≈ 124 µg/mL). This molecule also yielded a fraction unbound in [2] of 0.096.
In the series on NIH3T3, `COc1cc2nnc(C(N)=O)c(Nc3ccc(C)cc3F)c2cc1N1CCN(C)CC1` registered an Activity of 0.025 µM.
In turn, `COc1cc2nnc(C(N)=O)c(Nc3cccc(Cl)c3Cl)c2cc1OC` registered a solubility in series [1] of less than 1 µM. Also, in the series with NIH3T3, the Activity was 0.05 µM and 0.09 µM.
As to `COc1cc2nnc(C(N)=O)c(Nc3cccc(Cl)c3F)c2cc1N1CCN(C)CC1`, the solubility in series [1] was found to be 110 µM (≈ 48.9 µg/mL). The molecule further came in with an Activity in the series with NIH3T3 of 0.021 µM.
For the molecule `COc1cc2nnc(C(N)=O)c(Nc3ccc(F)cc3F)c2cc1OC`, the concentration in solution in series [1] (solubility) was 3 µM (≈ 1.08 µg/mL). Moreover, the Activity in the series with NIH3T3 was 0.16 µM and 0.4 µM.
